# Data: patent publication US4871766A, “Oil-in-water pesticidal emulsion” (priority 1986, dated 1989)
# Experiments:
# [1] = Solubility of active ingredient in hydrocarbon at 0° C.; format: physicochemical
# [2] = Behaviour of active ingredient on storage at 0° C.; format: physicochemical; conditions: stored at 0° C. for a long time
smiles,measurement,setting,value
"CCC(C)c1ccccc1OC(=O)NC (stereo not drawn) [active ingredient (a), 2-Sec-butylphenyl N--methylcarbamate]",solubility in the hydrocarbon (5),[1]; hydrocarbon (5),≥ 50 wt. %
"CC1(C)C(C=C(Cl)Cl)C1C(=O)OC(C#N)c1cccc(Oc2ccccc2)c1 (stereo not drawn) [active ingredient (b), α-Cyano-3-phenoxybenzyl 3-(2,2-dichlorovinyl)-2,2-dimethylcyclopropanecarboxylate]",crystallization of the active ingredient on storage,[2],crystallizes in part
"CC1(C)C(C=C(Cl)Cl)C1C(=O)OCc1cccc(Oc2ccccc2)c1 (stereo not drawn) [active ingredient (d), 3-Phenoxybenzyl 3-(2,2-dichlorovinyl)-2,2-dimethylcyclopropanecarboxylate]",solubility in the hydrocarbon (4),[1]; hydrocarbon (4),≥ 50 wt. %
"CC1(C)C(C(=O)OC(C#N)c2cccc(Oc3ccccc3)c2)C1(C)C (stereo not drawn) [active ingredient (e), α-Cyano-3-phenoxybenzyl 2,2,3,3-tetramethylcyclopropanecarboxylate]",solubility in the hydrocarbon (3),[1],≥ 50 wt. %
"CC(C)C(C(=O)OC(C#N)c1cccc(Oc2ccccc2)c1)c1ccc(Cl)cc1 (stereo not drawn) [active ingredient (f), α-Cyano-3-phenoxybenzyl 2-(4-chlorophenyl)-3-methylbutyrate]",solubility in the hydrocarbon (3),[1],≥ 50 wt. %
"CC(COc1ccc(Oc2ccccc2)cc1)Oc1ccccn1 (stereo not drawn) [active ingredient (h), 2-{1-Methyl-2-(4-phenoxyphenoxy)ethoxy}pyridine]",solubility in the hydrocarbon (6),[1]; hydrocarbon (6),10 wt. %
